Here are results for one compound from article PMC3484517 (The Korean Journal of Physiology & Pharmacology : Official …, 2012).

Where two headings read alike, the source gives them in different places.

The target of one data set is hERG K+ channel (Homo sapiens, UniProt Q12809). Briefly: whole-cell patch clamp of hERG. Format: cell-based.
Another data set deals with hERG K+ channel (IKr) (Homo sapiens, UniProt Q12809). Briefly: whole-cell patch clamp of hERG. It is filed as cell-based. Particulars: human, HEK293 cells transiently transfected with hERG, pH 7.4. Background: Patch clamp records ionic current or voltage across a cell membrane.
A further data set deals with KCNQ1/KCNE1 (IKs) (Homo sapiens, UniProt P51787). Briefly: whole-cell patch clamp of IKs in KCNQ1/KCNE1-cotransfected HEK293 cells. Format: cell-based.
The target of another data set is T1, KCNJ2 (IK1) (Homo sapiens, UniProt P63252).
T1 sequence (P63252 1-427): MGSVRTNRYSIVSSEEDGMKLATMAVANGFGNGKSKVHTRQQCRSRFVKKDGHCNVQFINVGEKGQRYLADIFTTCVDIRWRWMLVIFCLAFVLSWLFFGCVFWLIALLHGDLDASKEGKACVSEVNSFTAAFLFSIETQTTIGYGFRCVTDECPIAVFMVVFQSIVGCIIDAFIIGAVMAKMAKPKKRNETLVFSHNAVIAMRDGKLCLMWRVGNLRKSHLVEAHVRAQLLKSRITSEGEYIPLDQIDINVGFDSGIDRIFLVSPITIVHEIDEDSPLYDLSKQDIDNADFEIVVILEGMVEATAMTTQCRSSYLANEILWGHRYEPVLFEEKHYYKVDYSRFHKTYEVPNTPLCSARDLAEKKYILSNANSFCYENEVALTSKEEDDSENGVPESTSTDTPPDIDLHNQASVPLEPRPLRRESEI
Put plainly: whole-cell patch clamp of IK1 in KCNJ2-transfected HEK293 cells. It is filed as cell-based.

Data set [1] has as its system ECG intervals (RR, PR, QRS, QT). Conditions: adult outpatient population (n=1,048); cited from earlier work.
The test system of data set [2] is isolated guinea-pig atria. Conditions: spontaneously beating isolated guinea-pig atria; cited from earlier work.

Chain of KCNQ1/KCNE1 (IKs) (P51787 whole entry): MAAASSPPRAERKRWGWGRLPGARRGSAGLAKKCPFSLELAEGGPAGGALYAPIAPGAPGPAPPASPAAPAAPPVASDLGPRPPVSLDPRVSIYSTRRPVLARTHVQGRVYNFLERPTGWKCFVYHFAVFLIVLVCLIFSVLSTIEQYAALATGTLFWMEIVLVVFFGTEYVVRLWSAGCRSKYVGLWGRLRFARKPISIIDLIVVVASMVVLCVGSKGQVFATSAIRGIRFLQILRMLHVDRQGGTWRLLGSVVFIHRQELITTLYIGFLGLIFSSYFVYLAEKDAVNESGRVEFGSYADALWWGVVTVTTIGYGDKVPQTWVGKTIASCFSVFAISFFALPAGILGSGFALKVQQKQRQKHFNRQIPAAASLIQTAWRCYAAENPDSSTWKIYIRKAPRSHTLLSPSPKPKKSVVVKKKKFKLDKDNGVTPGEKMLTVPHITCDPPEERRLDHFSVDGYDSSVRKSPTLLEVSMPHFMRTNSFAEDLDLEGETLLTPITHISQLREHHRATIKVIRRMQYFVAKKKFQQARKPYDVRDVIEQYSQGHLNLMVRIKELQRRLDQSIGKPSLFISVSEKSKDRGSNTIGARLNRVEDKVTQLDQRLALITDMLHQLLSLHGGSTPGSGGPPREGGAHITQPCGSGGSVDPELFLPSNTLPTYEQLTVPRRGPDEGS
Chain of hERG K+ channel (IKr) (Q12809 whole entry): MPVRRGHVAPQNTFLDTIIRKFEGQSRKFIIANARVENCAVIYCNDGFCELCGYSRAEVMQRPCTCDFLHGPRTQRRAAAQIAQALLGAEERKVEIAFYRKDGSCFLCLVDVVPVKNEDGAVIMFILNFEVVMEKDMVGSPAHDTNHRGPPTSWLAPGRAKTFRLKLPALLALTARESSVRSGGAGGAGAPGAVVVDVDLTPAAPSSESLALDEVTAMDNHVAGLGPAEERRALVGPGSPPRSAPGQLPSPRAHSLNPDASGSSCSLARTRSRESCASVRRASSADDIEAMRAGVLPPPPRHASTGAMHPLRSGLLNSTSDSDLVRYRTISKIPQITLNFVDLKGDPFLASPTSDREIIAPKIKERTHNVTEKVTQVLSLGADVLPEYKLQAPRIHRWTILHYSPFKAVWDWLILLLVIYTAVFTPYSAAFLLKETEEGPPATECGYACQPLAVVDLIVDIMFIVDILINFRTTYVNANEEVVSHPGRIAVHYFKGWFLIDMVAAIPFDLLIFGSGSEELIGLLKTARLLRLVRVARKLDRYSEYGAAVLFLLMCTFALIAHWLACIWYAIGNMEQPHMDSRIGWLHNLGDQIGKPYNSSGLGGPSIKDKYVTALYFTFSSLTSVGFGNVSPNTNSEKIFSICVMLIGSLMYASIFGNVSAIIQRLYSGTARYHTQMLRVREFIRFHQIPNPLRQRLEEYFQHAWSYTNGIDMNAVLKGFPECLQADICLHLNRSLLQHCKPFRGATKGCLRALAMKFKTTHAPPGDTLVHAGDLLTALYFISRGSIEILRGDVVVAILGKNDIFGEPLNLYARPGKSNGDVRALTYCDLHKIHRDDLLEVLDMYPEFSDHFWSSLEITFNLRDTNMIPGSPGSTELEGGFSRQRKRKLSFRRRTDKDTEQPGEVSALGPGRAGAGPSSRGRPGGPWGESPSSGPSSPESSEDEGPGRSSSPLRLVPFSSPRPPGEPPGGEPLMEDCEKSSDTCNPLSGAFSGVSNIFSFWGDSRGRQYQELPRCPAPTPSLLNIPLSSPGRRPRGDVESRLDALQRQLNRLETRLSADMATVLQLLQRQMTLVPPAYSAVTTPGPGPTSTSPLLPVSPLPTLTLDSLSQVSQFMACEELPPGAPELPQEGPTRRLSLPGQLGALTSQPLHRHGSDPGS
Chain of hERG K+ channel (Q12809 whole entry): as above

What is called IC50 is the concentration that inhibits the measured activity by half. A lower IC50 goes with greater potency. A word on the inhibition: it is the change of the read-out against control, counted positive when it falls. For the compound `CN[C@H]1CC[C@@H](c2ccc(Cl)c(Cl)c2)c2ccccc21` [Sertraline], the IC50 amounted to 700 nM at hERG K+ channel; 12.3 ± 1.3 µM on KCNQ1/KCNE1 (IKs); 15.2 µM on KCNQ1/KCNE1 (IKs) (human, HEK293 cells transiently cotransfected with KCNQ1/KCNE1, pH 7.4); 10.5 µM at KCNJ2 (IK1). Further, the “Hill coefficient, hERG current inhibition” value on hERG K+ channel (HEK293 cells, Hill fit, n=4) is 1.3±0.02. The same compound registered an inhibition at 1 µM against hERG K+ channel (IKr) of 7.9 ± 1.9%. The compound further yielded an inhibition at 3 µM against hERG K+ channel (IKr) of 24.2 ± 1.9%. Also, 10 µM produced 60.1 ± 2.7% inhibition against hERG K+ channel (IKr). In addition, the inhibition at 30 µM against hERG K+ channel (IKr) turned out to be 86.4 ± 1.4%. The “reduction of IKs amplitude” value is listed as 1.5±3.8% on KCNQ1/KCNE1 (IKs) (1 µM sertraline, n=4); 10.3±2.5% at KCNQ1/KCNE1 (IKs) (3 µM sertraline, n=4); 36.6±3.5% on KCNQ1/KCNE1 (IKs) (10 µM sertraline, n=4); 84.0±5.6% on KCNQ1/KCNE1 (IKs) (30 µM sertraline, n=4). Besides, the “Hill coefficient, IKs inhibition” value on KCNQ1/KCNE1 (IKs) (KCNQ1/KCNE1 HEK293 cells, n=4) was determined as 2.5±0.1. For the same compound, the “reduction of IK1 amplitude” value on KCNJ2 (IK1) (1 µM sertraline, n=4) was 0.7±2.7%; at KCNJ2 (IK1) (3 µM sertraline, n=4) it was 9.4±1.1%; on KCNJ2 (IK1) (10 µM sertraline, n=4), 45.7±3.9%; at KCNJ2 (IK1) (30 µM sertraline, n=4) it was 92.5± 1.2%. For the same compound, the “Hill coefficient, IK1 inhibition” value at KCNJ2 (IK1) (KCNJ2 HEK293 cells, n=4) is reported as 2.1±0.2. The “effect on RR, PR, QRS, and QT intervals” value in data set [1] is given as “no significant effect”. Further, the “effect on rate of contractions and contractile force” value in data set [2] was “dose-dependent decrease in the rate contractions and in the contractile force”.
